The values that follow come from patent publication US10758534B2 (Vertex Pharmaceuticals Incorporated, priority 2014, dated 2020).

The assay deals with T1, F508del (Homo sapiens, UniProt P13569, DEL508-508).
T1 construct: expressed in transfected cells
The assay is described as follows: Protocol 1: membrane potential optical assay (FLIPR III, voltage sensing dye), identification of potentiator compounds. Format: cell-based. To be noted: Table 3, compounds of Table 1. Summed up:
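NIH 3T3 fibroblasts stably expressing F508del were cultured at 27° C for 24 hrs for temperature correction, then treated with compounds or DMSO and loaded with a voltage-sensing redistribution dye. Forskolin added with a Cl⁻ gradient activated the channel; membrane-potential fluorescence on FLIPR III reported increased gating.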

T1 sequence (P13569 with tags, fused parts or gaps DEL508-508): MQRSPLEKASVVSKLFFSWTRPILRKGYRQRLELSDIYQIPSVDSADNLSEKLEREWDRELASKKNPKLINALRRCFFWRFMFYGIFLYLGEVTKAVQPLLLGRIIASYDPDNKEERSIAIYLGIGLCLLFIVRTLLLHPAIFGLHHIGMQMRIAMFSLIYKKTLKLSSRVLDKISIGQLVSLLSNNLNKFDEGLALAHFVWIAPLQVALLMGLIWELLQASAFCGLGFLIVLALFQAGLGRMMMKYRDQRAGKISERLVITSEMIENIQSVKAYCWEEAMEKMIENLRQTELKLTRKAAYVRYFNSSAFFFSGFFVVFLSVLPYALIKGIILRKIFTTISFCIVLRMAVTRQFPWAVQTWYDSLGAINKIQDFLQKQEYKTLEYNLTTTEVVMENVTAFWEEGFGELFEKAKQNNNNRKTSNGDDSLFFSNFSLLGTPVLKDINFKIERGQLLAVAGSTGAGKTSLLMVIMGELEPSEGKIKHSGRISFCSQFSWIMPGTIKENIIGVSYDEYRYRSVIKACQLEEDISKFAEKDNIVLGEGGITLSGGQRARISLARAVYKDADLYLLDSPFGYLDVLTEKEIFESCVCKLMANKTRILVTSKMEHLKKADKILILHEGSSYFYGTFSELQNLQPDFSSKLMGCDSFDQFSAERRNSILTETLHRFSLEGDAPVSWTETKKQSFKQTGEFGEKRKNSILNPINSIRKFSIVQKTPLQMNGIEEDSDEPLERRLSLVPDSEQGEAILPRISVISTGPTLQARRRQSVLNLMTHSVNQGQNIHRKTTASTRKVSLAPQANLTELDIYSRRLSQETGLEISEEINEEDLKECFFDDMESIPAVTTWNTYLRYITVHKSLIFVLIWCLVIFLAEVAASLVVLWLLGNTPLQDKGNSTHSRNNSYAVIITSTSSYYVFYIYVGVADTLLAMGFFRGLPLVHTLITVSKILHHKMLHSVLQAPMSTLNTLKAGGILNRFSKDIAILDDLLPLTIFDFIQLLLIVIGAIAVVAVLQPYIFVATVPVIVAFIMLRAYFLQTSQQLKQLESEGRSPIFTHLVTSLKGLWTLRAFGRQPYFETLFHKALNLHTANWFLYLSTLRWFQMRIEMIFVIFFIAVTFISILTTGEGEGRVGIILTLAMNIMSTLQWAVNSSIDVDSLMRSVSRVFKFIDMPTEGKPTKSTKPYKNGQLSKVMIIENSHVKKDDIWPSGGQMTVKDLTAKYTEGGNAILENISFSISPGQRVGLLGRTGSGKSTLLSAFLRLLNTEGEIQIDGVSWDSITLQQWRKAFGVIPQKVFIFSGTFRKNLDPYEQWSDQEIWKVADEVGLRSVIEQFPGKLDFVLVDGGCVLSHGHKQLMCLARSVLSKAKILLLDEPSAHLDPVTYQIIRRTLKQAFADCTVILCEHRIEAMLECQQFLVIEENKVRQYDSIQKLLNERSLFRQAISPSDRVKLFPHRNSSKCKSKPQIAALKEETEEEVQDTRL

On to `CC(C)COc1cc(F)cc(-c2ccc(C(=O)NS(=O)(=O)c3cccc(N)n3)c(OCCCCc3cccnc3)n2)c1` [Compound 1690, N-[(6-amino-2-pyridyl)sulfonyl]-6-(3-fluoro-5-isobutoxy-phenyl)-2-[4-(3-pyridyl)butoxy]pyridine-3-carboxamide], for which the EC30 entry is on record as “+++ (“+++” means <3 uM)”. Next, `CC(C)Oc1ccc(-c2ccc(C(=O)NS(=O)(=O)c3cccc(N)n3)c(NCc3ccccc3)n2)cn1` [Compound 1026, N-[(6-amino-2-pyridyl)sulfonyl]-2-(benzylamino)-6-(6-isopropoxy-3-pyridyl)pyridine-3-carboxamide]: “++ (“++” means between 3 uM and 10 uM)”; `CC(C)COc1cc(F)cc(-c2ccc(C(=O)NS(=O)(=O)c3cccc(N)n3)c(OCC3CCOC3)n2)c1` (stereo not shown) [Compound 1499, N-[(6-amino-2-pyridyl)sulfonyl]-6-(3-fluoro-5-isobutoxy-phenyl)-2-(tetrahydrofuran-3-ylmethoxy)pyridine-3-carboxamide]: “++ (“++” means between 3 uM and 10 uM)”; `Cc1cc(C)c(Oc2nc(-c3cc(OCC(C)C)ccc3Cl)ccc2C(=O)NS(=O)(=O)c2ccc[nH]c2=O)c(C)c1` [Compound 1201, 6-(2-chloro-5-isobutoxy-phenyl)-N-[(2-oxo-1H-pyridin-3-yl)sulfonyl]-2-(2,4,6-trimethylphenoxy)pyridine-3-carboxamide]: “+++ (“+++” means <3 uM)”.

For the compound `CC(C)COc1cc(F)cc(-c2ccc(C(=O)NS(=O)(=O)c3cccc(N)n3)c(C3=CC(C)(C)OC3(C)C)n2)c1` [Compound 1531, N-[(6-amino-2-pyridyl)sulfonyl]-6-(3-fluoro-5-isobutoxy-phenyl)-2-(2,2,5,5-tetramethyl-3-furyl)pyridine-3-carboxamide], the EC30 entry was “++ (“++” means between 3 uM and 10 uM)”. `CO[C@@H]1CCN(S(=O)(=O)NC(=O)c2ccc(-c3cc(F)cc(OCC(C)C)c3)nc2N2C[C@@H](C)CC2(C)C)C1` [Compound 1893, 6-(3-fluoro-5-isobutoxy-phenyl)-N-[(3R)-3-methoxypyrrolidin-1-yl]sulfonyl-2-[(4S)-2,2,4-trimethylpyrrolidin-1-yl]pyridine-3-carboxamide]: the EC30 entry is reported as “+++ (“+++” means <3 uM)”. Take `CC1(C)CN(c2nccc(C(F)(F)F)c2C(=O)NS(=O)(=O)c2cccc(N)n2)C(C)(C)C1` [Compound 1658, N-[(6-amino-2-pyridyl)sulfonyl]-2-(2,2,4,4-tetramethylpyrrolidin-1-yl)-4-(trifluoromethyl)pyridine-3-carboxamide]: the EC30 result is “++ (“++” means between 3 uM and 10 uM)”.

As for `COc1ccccc1-c1ccc(C(=O)NS(=O)(=O)c2cccc(N)n2)c(Oc2c(C)cc(C)cc2C)n1` [Compound 1173, N-[(6-amino-2-pyridyl)sulfonyl]-6-(2-methoxyphenyl)-2-(2,4,6-trimethylphenoxy)pyridine-3-carboxamide], the EC30 entry was “+++ (“+++” means <3 uM)”. Consider `Cc1cc(C)c(Oc2nc(C3=CCCCO3)ccc2C(=O)NS(=O)(=O)c2cccc(N)n2)c(C)c1` [Compound 937, N-[(6-amino-2-pyridyl)sulfonyl]-6-(3,4-dihydro-2H-pyran-6-yl)-2-(2,4,6-trimethylphenoxy)pyridine-3-carboxamide], for which the EC30 entry is recorded as “+++ (“+++” means <3 uM)”.

As for `Cc1cc(C)c(Oc2nc(C3CCCCC3)ccc2C(=O)NS(=O)(=O)c2cccc(N)n2)c(C)c1` [Compound 1131, N-[(6-amino-2-pyridyl)sulfonyl]-6-cyclohexyl-2-(2,4,6-trimethylphenoxy)pyridine-3-carboxamide], the EC30 entry is recorded as “+++ (“+++” means <3 uM)”. `CC(C)Oc1ccn(-c2ccc(C(=O)NS(=O)(=O)c3cccnc3N)c(N3C[C@@H](C)CC3(C)C)n2)n1` [Compound 1844, N-[(2-amino-3-pyridyl)sulfonyl]-6-(3-isopropoxypyrazol-1-yl)-2-[(4S)-2,2,4-trimethylpyrrolidin-1-yl]pyridine-3-carboxamide]: the EC30 result is “+++ (“+++” means <3 uM)”.

With `Cc1cc(C)c(Oc2nc(-c3ccc(O)cc3C)ccc2C(=O)NS(=O)(=O)c2cccc(N)n2)c(C)c1` [Compound 1204, N-[(6-amino-2-pyridyl)sulfonyl]-6-(4-hydroxy-2-methyl-phenyl)-2-(2,4,6-trimethylphenoxy)pyridine-3-carboxamide], the EC30 entry is listed as “+ (“+” means greater than 10 uM)”. For the compound `CC1CCN(c2nc(-c3ccc(C(C)C)cc3)ccc2C(=O)NS(=O)(=O)c2cccc(N)n2)CC1` [Compound 847, N-[(6-amino-2-pyridyl)sulfonyl]-6-(4-isopropylphenyl)-2-(4-methyl-1-piperidyl)pyridine-3-carboxamide], the EC30 entry is “+++ (“+++” means <3 uM)”. `CC(C)COc1cc(F)cc(-c2ccc(C(=O)NS(=O)(=O)c3cccc(N)n3)c(OCCC3CCCO3)n2)c1` (stereo not shown) [Compound 1604, N-[(6-amino-2-pyridyl)sulfonyl]-6-(3-fluoro-5-isobutoxy-phenyl)-2-(2-tetrahydrofuran-2-ylethoxy)pyridine-3-carboxamide]: the EC30 entry is recorded as “+++ (“+++” means <3 uM)”. As to `COc1ccc(-c2ccc(C(=O)NS(=O)(=O)c3cccc(N)n3)c(Oc3c(C)cc(C)cc3C)n2)c(F)c1` [Compound 956, N-[(6-amino-2-pyridyl)sulfonyl]-6-(2-fluoro-4-methoxy-phenyl)-2-(2,4,6-trimethylphenoxy)pyridine-3-carboxamide], the EC30 result was “+++ (“+++” means <3 uM)”. The same measure for `Cc1ccc(-c2ccc(C(=O)NS(=O)(=O)c3nccnc3N)c(NCC3(C)CCOCC3)n2)cc1` [Compound 1066, N-(3-aminopyrazin-2-yl)sulfonyl-2-[(4-methyltetrahydropyran-4-yl)methylamino]-6-(p-tolyl)pyridine-3-carboxamide]: “++ (“++” means between 3 uM and 10 uM)”; for `CC(C)Oc1ccc(-c2ccc(C(=O)NS(=O)(=O)c3cccc(N)n3)c(N3CC[C@@H](C)C3(C)C)n2)cn1` [Compound 992, N-[(6-amino-2-pyridyl)sulfonyl]-6-(6-isopropoxy-3-pyridyl)-2-[(3R)-2,2,3-trimethylpyrrolidin-1-yl]pyridine-3-carboxamide]: “+++ (“+++” means <3 uM)”; for `CC1CN(c2nc(C(C)(C)C)c(C3=CCCC4(C3)OCCO4)cc2C(=O)NS(=O)(=O)c2cccc(N)n2)C(C)(C)C1` (stereo not shown) [Compound 1469, N-[(6-amino-2-pyridyl)sulfonyl]-6-tert-butyl-5-(1,4-dioxaspiro[4.5]dec-8-en-9-yl)-2-(2,2,4-trimethylpyrrolidin-1-yl)pyridine-3-carboxamide]: “++ (“++” means between 3 uM and 10 uM)”. Regarding `Cc1cc(C)c(Oc2nc(C(C)(C)C)ccc2C(=O)NS(=O)(=O)c2cccc(NCCO)n2)c(C)c1` [Compound 916, 6-tert-butyl-N-[[6-(2-hydroxyethylamino)-2-pyridyl]sulfonyl]-2-(2,4,6-trimethylphenoxy)pyridine-3-carboxamide], the EC30 entry is “+++ (“+++” means <3 uM)”.

Turning to `CC(C)COc1cc(F)cc(-c2ccc(C(=O)NS(=O)(=O)c3cccc(N)n3)c(OCCC3CCCCO3)n2)c1` (stereo not shown) [Compound 1680, N-[(6-amino-2-pyridyl)sulfonyl]-6-(3-fluoro-5-isobutoxy-phenyl)-2-(2-tetrahydropyran-2-ylethoxy)pyridine-3-carboxamide], the EC30 result is on record as “+++ (“+++” means <3 uM)”.

Regarding `CC1CN(c2ncccc2C(=O)NS(=O)(=O)c2cccc(NCc3cc(F)ccc3F)n2)C(C)(C)C1` (stereo not shown) [Compound 1770, N—[[6-[(2,5-difluorophenyl)methylamino]-2-pyridyl]sulfonyl]-2-(2,2,4-trimethylpyrrolidin-1-yl)pyridine-3-carboxamide], the EC30 result is listed as “+++ (“+++” means <3 uM)”.

For `CC1CN(c2nc(-c3cnc(OC(C)C)nc3)ccc2C(=O)NS(=O)(=O)c2cccc(N)n2)C(C)(C)C1` (stereo not shown) [Compound 844, N-[(6-amino-2-pyridyl)sulfonyl]-6-(2-isopropoxypyrimidin-5-yl)-2-(2,2,4-trimethylpyrrolidin-1-yl)pyridine-3-carboxamide], the EC30 entry is “++ (“++” means between 3 uM and 10 uM)”.

With `CC1CN(c2nc(-c3ccnn3C(C)C)ccc2C(=O)NS(=O)(=O)c2cccc(N)n2)C(C)(C)C1` (stereo not shown) [Compound 1242, N-[(6-amino-2-pyridyl)sulfonyl]-6-(2-isopropylpyrazol-3-yl)-2-(2,2,4-trimethylpyrrolidin-1-yl)pyridine-3-carboxamide], the EC30 entry is listed as “+++ (“+++” means <3 uM)”. Turning to `CC1CN(c2ncccc2C(=O)NS(=O)(=O)c2cccc(Nc3ccccc3Cl)n2)C(C)(C)C1` (stereo not shown) [Compound 1872, N—[[6-(2-chloroanilino)-2-pyridyl]sulfonyl]-2-(2,2,4-trimethylpyrrolidin-1-yl)pyridine-3-carboxamide], the EC30 result was “+++ (“+++” means <3 uM)”. With `CC(C)Oc1ccc(-c2ccc(C(=O)NS(=O)(=O)c3cccc(N)n3)c(N3CCCC(C(F)(F)F)C3)n2)cn1` (stereo not shown) [Compound 1274, N-[(6-amino-2-pyridyl)sulfonyl]-6-(6-isopropoxy-3-pyridyl)-2-[3-(trifluoromethyl)-1-piperidyl]pyridine-3-carboxamide], the EC30 result is “+++ (“+++” means <3 uM)”.

As for `CC(C)COc1cc(F)cc(-c2ccc(C(=O)NS(=O)(=O)c3cccc(N)n3)c(N3C[C@@H]4CC[C@H]3C4)n2)c1` [Compound 1180, N-[(6-amino-2-pyridyl)sulfonyl]-2-[(1R,4S)-3-azabicyclo[2.2.1]heptan-3-yl]-6-(3-fluoro-5-isobutoxy-phenyl)pyridine-3-carboxamide], the EC30 result was “+++ (“+++” means <3 uM)”. The same measure for `CC(C)(C)c1ccc(C(=O)NS(=O)(=O)c2cccc(N)n2)c(N2CCC(C3CC3)C2(C)C)n1` (stereo not shown) [Compound 1974]: “+++ (“+++” means <3 uM)”. As to `CC1CN(c2ncccc2C(=O)NS(=O)(=O)c2cccc(O[C@H](C)c3ccccc3)n2)C(C)(C)C1` (stereo partly drawn) [Compound 1842, N—[[6-[(1R)-1-phenylethoxy]-2-pyridyl]sulfonyl]-2-(2,2,4-trimethylpyrrolidin-1-yl)pyridine-3-carboxamide], the EC30 entry is reported as “+++ (“+++” means <3 uM)”.
